# In US6706663B2, “Herbicidal 3-heterocyclic substituted benzisothiazole and benzisoxazole compounds” (Wyeth, priority 2000, dated 2004):
# Assays:
# [1] = test system: ABUTH (Abutilon theophrasti); assay: Postemergence herbicidal evaluation; type: in vivo, Medic.
# Summary of the method: (§1)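 Seedlings grown about two weeks in flats, sprayed, then kept under standard greenhouse care. Rated visually 4–5 weeks after treatment on a 0–9 scale (stand, vigour, malformation, size, chlorosis, overall appearance) relative to untreated control; repeat tests averaged.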
# [2] = test system: AMBEL (Ambrosia artemisifolia); assay: Postemergence herbicidal evaluation; type: in vivo, L.
# Summary of the method: as §1
# [3] = test system: CASOB (Cassia obtusifolia); assay: Postemergence herbicidal evaluation; type: in vivo, L.
# Summary of the method: as §1
# [4] = test system: CHEAL (Chenopodium album); assay: Postemergence herbicidal evaluation; type: in vivo, L.
# Summary of the method: as §1
# [5] = test system: GALAP (Galium aparine); assay: Postemergence herbicidal evaluation; type: in vivo
# Summary of the method: as §1
# [6] = test system: ECHCG (Echinochloa crus-galli); assay: Postemergence herbicidal evaluation; type: in vivo, (L.) Beau
# Summary of the method: as §1
# [7] = test system: GLXMAW (Soybean, Williams); assay: Postemergence herbicidal evaluation; type: in vivo, Glycine max, (L.) Merr. cv Williams
# Summary of the method: as §1
# [8] = test system: ORYSAT (Rice, Tebonnet); assay: Postemergence herbicidal evaluation; type: in vivo, Oryza sativa, (L.) Tebonnet
# Summary of the method: as §1
# [9] = test system: ZEAMX (Corn, Field); assay: Postemergence herbicidal evaluation; type: in vivo, Zea mays, L.
# Summary of the method: as §1
# [10] = test system: ABUTH (Abutilon theophrasti); assay: Preemergence herbicidal evaluation; type: in vivo, Medic.; conditions: rated 4-5 weeks after treatment
# [11] = test system: AMBEL (Ambrosia artemisifolia); assay: Preemergence herbicidal evaluation; type: in vivo, L.; conditions: rated 4-5 weeks after treatment
# Summary of the method: (§2)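 Seeds planted in potting soil cups and sprayed preemergence with aqueous acetone compound solution. Greenhouse-grown; rated 4–5 weeks after treatment on a 0-9 visual scale (stand, vigor, malformation, size, chlorosis, appearance) versus control.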
# [12] = test system: CASOB (Cassia obtusifolia); assay: Preemergence herbicidal evaluation; type: in vivo, L.; conditions: preemergence, rated 4-5 weeks after treatment
# Summary of the method: as §2
# [13] = test system: CHEAL (Chenopodium album); assay: Preemergence herbicidal evaluation; type: in vivo, L.; conditions: rated 4-5 weeks after treatment
# Summary of the method: as §2
# [14] = test system: GALAP (Galium aparine); assay: Preemergence herbicidal evaluation; type: in vivo; conditions: rated 4-5 weeks after treatment
# Summary of the method: as §2
# [15] = test system: IPOHE (Ipomoea hederacea); assay: Preemergence herbicidal evaluation; type: in vivo, (L.) Jacq.; conditions: rated 4-5 weeks after treatment
# [16] = test system: ORYSAT (Rice, Tebonnet); assay: Preemergence herbicidal evaluation; type: in vivo, Oryza sativa, (L.) Tebonnet; conditions: rated 4-5 weeks after treatment
# [17] = test system: TRZAWR (Wheat, Winter, cv Riband); assay: Preemergence herbicidal evaluation; type: in vivo, Triticum aestivum; conditions: rated 4-5 weeks after treatment
# Summary of the method: as §2
# [18] = test system: CYPSE (Cyperus serotinus); assay: Flooded paddy, preemergence weed control; type: in vivo, Rottb.; conditions: rated 3-4 weeks after treatment, 0-9 rating scale
# Summary of the method: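 Seeds or propagules were planted 0.5 cm deep in silt loam and flooded to 1.5–3 cm. Compounds in 50/50 v/v aqueous/acetone were pipetted into the flood water at about 0.0080 to 0.1250 kg/ha. After 3–4 weeks in the greenhouse, effect was rated visually on a 0–9 scale versus untreated control.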
# [19] = test system: SAGPY (Sagittaria pygmaea); assay: Flooded paddy, preemergence weed control; type: in vivo, L.; conditions: rated 3-4 weeks after treatment, 0-9 rating scale
# Summary of the method: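 Preemergence, flooded: propagules planted at 0.5 cm depth in silt loam, water level maintained at 1.5 to 3 cm over soil, containers kept on greenhouse benches. Activity scored 0-9 by eye relative to a control plant.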
# [20] = test system: ORYSAT (Rice, Tebonnet); assay: Flooded paddy, post-transplant rice tolerance; type: in vivo, Oryza sativa, (L.) Tebonnet; conditions: flooded paddy, post-transplant rice, rated 3-4 weeks after treatment, 0-9 rating scale
# Summary of the method: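 Ten-day-old seedlings, 2/pot, silt loam; flood kept 1.5–3 cm over soil; herbicide applied post-transplant; greenhouse; score 0–9 visual vs control.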
structure (smiles),measurement,setting,value
"CC1CCOC(c2nsc3ccc(-n4c(=O)cc(C(F)(F)F)n(C)c4=O)cc23)O1 (stereo not shown) [Compound 37, 1-methyl-3-[3-(4-methyl-m-dioxan-2-yl)-1,2-benzisothiazol-5-yl]-6-(trifluoromethyl)uracil]","Postemergence herbicidal rating, ABUTH",[1]; rate 0.0320 kg/ha,9.0
same,"Postemergence herbicidal rating, ABUTH",[1]; rate 0.0620 kg/ha,9.0
same,"Postemergence herbicidal rating, AMBEL",[2]; rate 0.0320 kg/ha,9.0
same,"Postemergence herbicidal rating, AMBEL",[2]; rate 0.0620 kg/ha,9.0
same,"Postemergence herbicidal rating, CASOB",[3]; rate 0.0320 kg/ha,4.0
same,"Postemergence herbicidal rating, CASOB",[3]; rate 0.0620 kg/ha,5.0
same,"Postemergence herbicidal rating, CHEAL",[4]; rate 0.0320 kg/ha,5.0
same,"Postemergence herbicidal rating, CHEAL",[4]; rate 0.0620 kg/ha,9.0
same,"Postemergence herbicidal rating, GALAP",[5]; rate 0.0320 kg/ha,4.0
same,"Postemergence herbicidal rating, GALAP",[5]; rate 0.0620 kg/ha,4.0
same,"Postemergence herbicidal rating, ECHCG",[6]; rate 0.0320 kg/ha,4.0
same,"Postemergence herbicidal rating, ECHCG",[6]; rate 0.0620 kg/ha,4.0
same,"Postemergence herbicidal rating, GLXMAW",[7]; rate 0.0320 kg/ha,9.0
same,"Postemergence herbicidal rating, GLXMAW",[7]; rate 0.0620 kg/ha,9.0
same,"Postemergence herbicidal rating, ORYSAT",[8]; rate 0.0320 kg/ha,4.5
same,"Postemergence herbicidal rating, ORYSAT",[8]; rate 0.0620 kg/ha,5.0
same,"Postemergence herbicidal rating, ZEAMX",[9]; rate 0.0320 kg/ha,6.0
same,"Postemergence herbicidal rating, ZEAMX",[9]; rate 0.0620 kg/ha,6.0
same,ABUTH preemergence herbicidal rating,[10]; Rate 0.0620 kg/ha,9.0
same,ABUTH preemergence herbicidal rating,[10]; Rate 0.1250 kg/ha,9.0
same,ABUTH preemergence herbicidal rating,[10]; Rate 0.2500 kg/ha,9.0
same,AMBEL preemergence herbicidal rating,[11]; Rate 0.0620 kg/ha,9.0
same,AMBEL preemergence herbicidal rating,[11]; Rate 0.1250 kg/ha,9.0
same,AMBEL preemergence herbicidal rating,[11]; Rate 0.2500 kg/ha,9.0
same,CASOB preemergence herbicidal rating,[12]; Rate 0.0620 kg/ha,7.0
same,CASOB preemergence herbicidal rating,[12]; Rate 0.1250 kg/ha,8.0
same,CASOB preemergence herbicidal rating,[12]; Rate 0.2500 kg/ha,9.0
same,CHEAL preemergence herbicidal rating,[13]; Rate 0.0620 kg/ha,9.0
same,CHEAL preemergence herbicidal rating,[13]; Rate 0.1250 kg/ha,9.0
same,CHEAL preemergence herbicidal rating,[13]; Rate 0.2500 kg/ha,9.0
same,GALAP preemergence herbicidal rating,[14]; Rate 0.0620 kg/ha,5.0
same,GALAP preemergence herbicidal rating,[14]; Rate 0.1250 kg/ha,9.0
same,GALAP preemergence herbicidal rating,[14]; Rate 0.2500 kg/ha,9.0
same,IPOHE preemergence herbicidal rating,[15]; Rate 0.0620 kg/ha,7.0
same,IPOHE preemergence herbicidal rating,[15]; Rate 0.1250 kg/ha,8.0
same,IPOHE preemergence herbicidal rating,[15]; Rate 0.2500 kg/ha,7.0
same,ORYSAT preemergence herbicidal rating,[16]; Rate 0.0620 kg/ha,9.0
same,ORYSAT preemergence herbicidal rating,[16]; Rate 0.1250 kg/ha,9.0
same,ORYSAT preemergence herbicidal rating,[16]; Rate 0.2500 kg/ha,9.0
same,TRZAWR preemergence herbicidal rating,[17]; Rate 0.0620 kg/ha,9.0
same,TRZAWR preemergence herbicidal rating,[17]; Rate 0.1250 kg/ha,9.0
same,TRZAWR preemergence herbicidal rating,[17]; Rate 0.2500 kg/ha,9.0
same,"herbicidal rating, CYPSE",[18]; rate 0.0320 kg/ha,9.0
same,"herbicidal rating, CYPSE",[18]; rate 0.1250 kg/ha,9.0
same,"herbicidal rating, SAGPY",[19]; rate 0.0080 kg/ha,0.0
same,"herbicidal rating, SAGPY",[19]; rate 0.0320 kg/ha,7.0
same,"herbicidal rating, SAGPY",[19]; rate 0.1250 kg/ha,9.0
same,"herbicidal rating, ORYSAT (rice tolerance)",[20]; rate 0.0080 kg/ha,5.0
same,"herbicidal rating, ORYSAT (rice tolerance)",[20]; rate 0.0320 kg/ha,8.5
same,"herbicidal rating, ORYSAT (rice tolerance)",[20]; rate 0.1250 kg/ha,9.0
"C#CCOC(=O)COc1ccsc1-c1nsc2ccc(-n3c(=O)cc(C(F)(F)F)n(C)c3=O)cc12 [Compound 39, 2-propynyl [[2-[5-[3,6-dihydro-3-methyl-2,6-dioxo-4-(trifluoromethyl)-1(2H)-pyrimidinyl]-1,2-benzisothiazol-3-yl]-3-thienyl]oxy]acetate]","Postemergence herbicidal rating, ABUTH",[1]; rate 0.0320 kg/ha,2.0
same,"Postemergence herbicidal rating, ABUTH",[1]; rate 0.0620 kg/ha,9.0
same,"Postemergence herbicidal rating, AMBEL",[2]; rate 0.0320 kg/ha,3.0
same,"Postemergence herbicidal rating, AMBEL",[2]; rate 0.0620 kg/ha,3.0
same,"Postemergence herbicidal rating, CASOB",[3]; rate 0.0320 kg/ha,0.0
same,"Postemergence herbicidal rating, CASOB",[3]; rate 0.0620 kg/ha,0.0
same,"Postemergence herbicidal rating, CHEAL",[4]; rate 0.0320 kg/ha,0.0
same,"Postemergence herbicidal rating, CHEAL",[4]; rate 0.0620 kg/ha,4.0
same,"Postemergence herbicidal rating, GALAP",[5]; rate 0.0320 kg/ha,0.0
same,"Postemergence herbicidal rating, GALAP",[5]; rate 0.0620 kg/ha,1.0
same,"Postemergence herbicidal rating, ECHCG",[6]; rate 0.0320 kg/ha,0.0
same,"Postemergence herbicidal rating, ECHCG",[6]; rate 0.0620 kg/ha,1.0
same,"Postemergence herbicidal rating, GLXMAW",[7]; rate 0.0320 kg/ha,5.0
same,"Postemergence herbicidal rating, GLXMAW",[7]; rate 0.0620 kg/ha,5.0
same,"Postemergence herbicidal rating, ORYSAT",[8]; rate 0.0320 kg/ha,1.5
same,"Postemergence herbicidal rating, ORYSAT",[8]; rate 0.0620 kg/ha,2.0
same,"Postemergence herbicidal rating, ZEAMX",[9]; rate 0.0320 kg/ha,4.5
same,"Postemergence herbicidal rating, ZEAMX",[9]; rate 0.0620 kg/ha,5.0
same,Preemergence herbicidal rating ABUTH,[10]; Rate 0.0620 kg/ha,1.0
same,ABUTH preemergence herbicidal rating,[10]; Rate 0.1250 kg/ha,1.0
same,ABUTH preemergence herbicidal rating,[10]; Rate 0.2500 kg/ha,9.0
same,Preemergence herbicidal rating AMBEL,[11]; Rate 0.0620 kg/ha,0.0
same,AMBEL preemergence herbicidal rating,[11]; Rate 0.1250 kg/ha,0.0
same,AMBEL preemergence herbicidal rating,[11]; Rate 0.2500 kg/ha,0.0
same,CASOB preemergence herbicidal rating,[12]; Rate 0.1250 kg/ha,0.0
same,CASOB preemergence herbicidal rating,[12]; Rate 0.2500 kg/ha,0.0
same,Preemergence herbicidal rating CHEAL,[13]; Rate 0.0620 kg/ha,5.0
same,CHEAL preemergence herbicidal rating,[13]; Rate 0.1250 kg/ha,9.0
same,CHEAL preemergence herbicidal rating,[13]; Rate 0.2500 kg/ha,9.0
same,Preemergence herbicidal rating GALAP,[14]; Rate 0.0620 kg/ha,0.0
same,GALAP preemergence herbicidal rating,[14]; Rate 0.1250 kg/ha,0.0
same,GALAP preemergence herbicidal rating,[14]; Rate 0.2500 kg/ha,0.0
same,Preemergence herbicidal rating IPOHE,[15]; Rate 0.0620 kg/ha,0.0
same,IPOHE preemergence herbicidal rating,[15]; Rate 0.1250 kg/ha,0.0
same,IPOHE preemergence herbicidal rating,[15]; Rate 0.2500 kg/ha,1.0
same,Preemergence herbicidal rating ORYSAT,[16]; Rate 0.0620 kg/ha,0.0
same,ORYSAT preemergence herbicidal rating,[16]; Rate 0.1250 kg/ha,0.0
same,ORYSAT preemergence herbicidal rating,[16]; Rate 0.2500 kg/ha,1.0
same,Preemergence herbicidal rating TRZAWR,[17]; Rate 0.0620 kg/ha,0.0
same,TRZAWR preemergence herbicidal rating,[17]; Rate 0.1250 kg/ha,0.0
same,TRZAWR preemergence herbicidal rating,[17]; Rate 0.2500 kg/ha,1.0
same,"herbicidal rating, CYPSE",[18]; rate 0.0320 kg/ha,0.0
same,"herbicidal rating, CYPSE",[18]; rate 0.1250 kg/ha,0.0
same,"herbicidal rating, SAGPY",[19]; rate 0.0320 kg/ha,0.0
same,"herbicidal rating, SAGPY",[19]; rate 0.1250 kg/ha,3.0
same,"herbicidal rating, ORYSAT (rice tolerance)",[20]; rate 0.0320 kg/ha,0.0
same,"herbicidal rating, ORYSAT (rice tolerance)",[20]; rate 0.1250 kg/ha,4.0
